Measured values published in patent US20250161245A1, “A MIXTURE OF UREA, BIURET AND N-CONTAINING BY-PRODUCTS CREATED DURING BIURET PRODUCTION AS A DIETARY NON-PROTEIN NITROGEN-SOURCE FOR RUMINANTS AND USES THEREOF” (Yara International ASA, priority 2022, published 2025).

How the values were obtained:
ruminal fluid [1] = assay: in vitro methane production, batch culture (Example 4); format: cell-based, Angus crossbred steers; conditions: corn silage-based diet, 24 hours incubation
Protocol: The amount of methane produced was determined by measuring total gas production and the contribution of methane to it. The production of gas was recorded using an Ankom Gas Monitoring System from Ankom Technologies. This system was adapted to 500 ml bottles during the entire fermentation process. The kinetics of the production was fitted to a Gompertz model to determine the rate of the total maximal gas production (M), fractional rate of gas produced (kf) and lag phase (L). A gas subsample was analyzed to measure methane concentration and calculate the total methane production during the fermentation. The concentration of methane was determined using a gas chromatograph Agilent 7820 GC from Agilent Technologies with flame ionization and a capillary column (Plot Fused Silica 25 m×0.32 mm, coating Molsieve 5A, Varian CP 7536 from Varian Inc.).

ruminal fluid [2] = assay: in vitro batch culture incubations: VFA, ammonia-N, pH (Example 4); format: cell-based, Angus crossbred steers; conditions: corn silage-based diet
Protocol: In this example, an in vitro assay was performed using batch culture incubations, aiming to simulate rumen fermentation.
Two ruminally cannulated Angus crossbred steers (808.8±36.3 kg body weight) were used as ruminal fluid donors for the in vitro batch culture incubations. The steers were fed a corn silage and gin trash diet (70% and 30% on a dry matter basis, respectively) ad libitum at least 35 days before collecting ruminal fluid to perform the in vitro incubations. Each steer received a NPN-mixture equivalent to 100 g of urea per day comprised of an equal amount of N from the different NPN sources to adapt the rumen microbial community. Thus, each steer was fed daily 33 g of urea (46 wt. % N) or 37 g of a urea-biuret mixture according to the present disclosure (UB) comprising 41 wt. % N. These amounts were mixed in with the feed diet every two days.
The in vitro batch culture incubations were conducted as a randomized complete block design using 70 wt. % corn silage and 30 wt. % gin trash on a dry matter basis conserving the diet characteristics used during the animal adaptation period. The treatments were designed to be isonitrogenous (=having the same amount of dietary nitrogen) and equivalent to 1 wt. % of urea inclusion. The NPN treatments were consequently as follows: • Control without NPN-supplementation (“control”); • 100 wt % urea (Rumisan®) (“urea”); • 100 wt % of a urea/biuret mixture according to the present application (“UB”).
The in vitro incubations were conducted on three separate days (replicates). A representative sample of digesta was collected from different places in the rumen of ruminally cannulated steers and strained through 4 layers of cheesecloth, placed in pre-warmed thermos containers, and transported to the laboratory within 30 minutes after the collection. In the laboratory, the ruminal fluid from the two steers was maintained under constant CO2-flux and was combined in equal proportions. This combined ruminal fluid was mixed with McDougall's buffer (McDougall, 1948) with and without 0.077 g/liter of 10 wt. % ammonium sulfate enriched with ^15N in relation 1:4, and it was used as an inoculum. Two bottles of 500 ml fitted with a side arm and a rubber septum were incubated per treatment. The bottles contained 5.6 g of substrate dry matter and 400 ml of ^15N enriched inoculum, and were incubated for 24 hours at 39° C. with an agitation of 60 rpm to monitor gas production kinetics using an Ankom Gas Monitoring System from Ankom Technologies, Fairport, New York. Also, one 500-ml bottle without 15N enriched inoculum was incubated to determine the basal ^15N enrichment. At 12 hours of incubation, two samples of 10 ml of rumen fluid were collected from each bottle through the septa port using a 20-ml syringe. These samples were acidified by adding 10 μl of a 20 vol/vol % of H2SO4-solution to each 10-ml sample, and frozen at minus 20° C. until further analysis. At the end of the 24 hours incubation, the final pH was recorded, the bottles were placed on ice to prevent further microbial fermentation and two 10-ml samples were collected and acidified by adding 20 μl of a 20 vol/vol % of H2SO4-solution and were frozen at minus 20° C. until further analysis. The remaining fermentation content was thereafter agitated at 60 rpm for 30 seconds and divided into two subsamples. […]

[3] = 12 hours of incubation, equivalent to 1 wt. % urea

Q: With `NC(N)=O` [Urea, urea] as the compound, how does the “methane production per g organic matter digested” value (ruminal fluid [1]) read?
A: 6.86 mM/g OMd

Q: What about the “methane production per g organic matter incubated” value (ruminal fluid [1]) of the same compound?
A: 1.23 mM/g OMi

Q: And the Ammonia-N (ruminal fluid [2]; [3])?
A: 2.74 mM

Q: What about the “Total VFA” value (ruminal fluid [2]; [3]) of the same compound?
A: 31.77 mM

Q: What about the Ammonia-N (ruminal fluid [2]; 24 hours of incubation) of the same compound?
A: 6.55 mM

Q: What about the “Total VFA” value (ruminal fluid [2]; 24 hours of incubation) of the same compound?
A: 40.96 mM

Q: What about the pH (ruminal fluid [2]; 24 hours of incubation) of the same compound?
A: 6.38
